Results taken from publication PMC7935272 (PLoS Pathogens, 2021).
Where two headings read alike, the source gives them in different places.

What was measured:
MeV L1708 = MeV L1708 (Measles virus, UniProt Q9WMB3); test: Biolayer interferometry, MeV L1708 WT; assay type: binding; conditions: for BLI sensorgram signal: time r4=0 s, r5=0.2 s, r6=0.4 s, r7=0.6 s; for S5 E BLI response versus compound conc. / S5 F BLI response versus compound conc.: L1708 wt; for S5 B BLI sensorgram response / S5 C BLI sensorgram response: MeV L1708 WT; for steady-state BLI sensor response: S7 B
MeV L1708, sequence (Q9WMB3 1-1708): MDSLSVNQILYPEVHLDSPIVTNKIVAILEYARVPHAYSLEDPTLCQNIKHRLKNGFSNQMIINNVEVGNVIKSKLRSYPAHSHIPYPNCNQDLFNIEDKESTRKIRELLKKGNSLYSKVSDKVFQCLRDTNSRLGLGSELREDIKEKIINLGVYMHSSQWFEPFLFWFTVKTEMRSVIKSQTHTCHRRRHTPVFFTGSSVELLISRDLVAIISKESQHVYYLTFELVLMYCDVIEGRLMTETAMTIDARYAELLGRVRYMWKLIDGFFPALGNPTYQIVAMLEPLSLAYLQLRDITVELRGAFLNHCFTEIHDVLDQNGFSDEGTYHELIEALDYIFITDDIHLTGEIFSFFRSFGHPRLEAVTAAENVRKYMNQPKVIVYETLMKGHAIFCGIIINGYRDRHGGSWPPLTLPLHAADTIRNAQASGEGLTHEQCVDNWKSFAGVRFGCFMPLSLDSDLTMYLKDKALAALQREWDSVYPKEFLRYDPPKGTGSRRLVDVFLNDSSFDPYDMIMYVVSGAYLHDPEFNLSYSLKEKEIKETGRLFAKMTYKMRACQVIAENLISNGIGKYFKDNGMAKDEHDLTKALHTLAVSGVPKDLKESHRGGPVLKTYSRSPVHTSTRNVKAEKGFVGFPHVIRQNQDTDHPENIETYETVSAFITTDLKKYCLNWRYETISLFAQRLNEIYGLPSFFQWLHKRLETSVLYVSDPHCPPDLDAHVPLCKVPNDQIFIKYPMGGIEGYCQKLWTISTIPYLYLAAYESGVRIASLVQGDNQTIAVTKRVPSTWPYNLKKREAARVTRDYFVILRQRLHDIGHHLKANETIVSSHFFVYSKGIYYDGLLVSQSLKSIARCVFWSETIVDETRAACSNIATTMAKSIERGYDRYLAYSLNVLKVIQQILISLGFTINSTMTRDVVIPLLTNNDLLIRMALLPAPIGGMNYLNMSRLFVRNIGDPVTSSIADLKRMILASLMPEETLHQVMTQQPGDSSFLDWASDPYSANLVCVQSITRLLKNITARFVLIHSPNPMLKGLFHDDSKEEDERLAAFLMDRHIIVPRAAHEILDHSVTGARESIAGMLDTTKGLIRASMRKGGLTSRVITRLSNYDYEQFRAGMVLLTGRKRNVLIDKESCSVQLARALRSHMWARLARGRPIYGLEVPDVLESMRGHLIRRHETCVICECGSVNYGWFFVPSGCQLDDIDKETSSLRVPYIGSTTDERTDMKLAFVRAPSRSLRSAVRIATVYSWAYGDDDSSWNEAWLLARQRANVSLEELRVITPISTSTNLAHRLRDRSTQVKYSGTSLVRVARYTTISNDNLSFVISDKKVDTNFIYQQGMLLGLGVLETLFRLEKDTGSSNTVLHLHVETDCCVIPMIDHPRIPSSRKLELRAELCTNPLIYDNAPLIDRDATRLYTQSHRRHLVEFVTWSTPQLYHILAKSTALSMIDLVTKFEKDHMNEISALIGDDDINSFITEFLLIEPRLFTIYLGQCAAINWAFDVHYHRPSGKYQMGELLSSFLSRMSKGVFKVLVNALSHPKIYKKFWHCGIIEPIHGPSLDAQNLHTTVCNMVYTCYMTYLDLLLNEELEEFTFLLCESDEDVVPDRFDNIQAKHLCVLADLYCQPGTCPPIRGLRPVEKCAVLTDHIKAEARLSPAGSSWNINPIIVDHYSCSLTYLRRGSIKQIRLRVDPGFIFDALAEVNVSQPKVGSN
MeV L1708, sequence (Q9WMB4 whole entry partner): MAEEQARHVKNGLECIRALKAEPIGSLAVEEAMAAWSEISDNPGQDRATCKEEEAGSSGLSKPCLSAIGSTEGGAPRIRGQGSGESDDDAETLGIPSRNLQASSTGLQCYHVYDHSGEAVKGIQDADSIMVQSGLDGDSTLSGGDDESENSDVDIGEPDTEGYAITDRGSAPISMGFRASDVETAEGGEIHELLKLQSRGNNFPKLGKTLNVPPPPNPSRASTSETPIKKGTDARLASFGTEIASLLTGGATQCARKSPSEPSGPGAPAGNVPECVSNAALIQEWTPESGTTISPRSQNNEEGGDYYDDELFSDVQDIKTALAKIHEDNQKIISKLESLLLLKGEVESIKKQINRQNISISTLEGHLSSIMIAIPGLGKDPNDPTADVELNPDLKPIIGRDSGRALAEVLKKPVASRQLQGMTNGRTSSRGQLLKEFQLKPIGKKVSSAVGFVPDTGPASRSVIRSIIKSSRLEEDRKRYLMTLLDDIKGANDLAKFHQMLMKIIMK

MeV [1] = test: Cell-based anti-MeV assays of earlier work
MeV [2] = conditions: cited from earlier work
[3] = cited from earlier work

**Q.** Which results are given for `Cn1nc(C(F)(F)F)cc1C(=O)Nc1ccc(S(=O)(=O)N2CCCC[C@H]2CCN2CCOCC2)cc1` [ERDRP-0519, S(=O)(=O)(N1[C@H](CCN2CCOCC2)CCCC1)c1ccc(NC(=O)c2n(C)nc(C(F)(F)F)c2)cc1]?
**A.** BLI sensorgram signal (MeV L1708; 0.027 µM, 0 s after start): 0.003933; BLI sensorgram signal (MeV L1708; 0.027 µM, 0.2 s after start): 0.003451; BLI sensorgram signal (MeV L1708; 0.027 µM, 0.4 s after start): 0.003441; BLI sensorgram signal (MeV L1708; 0.027 µM, 0.6 s after start): 0.002991; BLI sensorgram signal (MeV L1708; 0.08 µM, 0 s after start): 0.004633; BLI sensorgram signal (MeV L1708; 0.08 µM, 0.2 s after start): 0.004988; BLI sensorgram signal (MeV L1708; 0.08 µM, 0.4 s after start): 0.005321; BLI sensorgram signal (MeV L1708; 0.08 µM, 0.6 s after start): 0.005054; BLI sensorgram signal (MeV L1708; 0.74 µM, 0 s after start): 0.0125; BLI sensorgram signal (MeV L1708; 0.74 µM, 0.2 s after start): 0.01183; BLI sensorgram signal (MeV L1708; 0.74 µM, 0.4 s after start): 0.01188; BLI sensorgram signal (MeV L1708; 0.74 µM, 0.6 s after start): 0.0114; BLI sensorgram signal (MeV L1708; 2.22 µM, 0 s after start): 0.01275; BLI sensorgram signal (MeV L1708; 2.22 µM, 0.2 s after start): 0.01261; BLI sensorgram signal (MeV L1708; 2.22 µM, 0.4 s after start): 0.01211; BLI sensorgram signal (MeV L1708; 2.22 µM, 0.6 s after start): 0.01142; BLI sensorgram signal (MeV L1708; 6.67 µM, 0 s after start): 0.009323; BLI sensorgram signal (MeV L1708; 6.67 µM, 0.2 s after start): 0.01006; BLI sensorgram signal (MeV L1708; 6.67 µM, 0.4 s after start): 0.01027; BLI sensorgram signal (MeV L1708; 6.67 µM, 0.6 s after start): 0.01076; S5 E BLI response versus compound conc. (MeV L1708; compound conc. 0.1 uM): 0.01921; S5 F BLI response versus compound conc. (MeV L1708; compound conc. 0.1 uM): 0.02408; S5 E BLI response versus compound conc. (MeV L1708; compound conc. 0.25 uM): 0.02429; S5 F BLI response versus compound conc. (MeV L1708; compound conc. 0.25 uM): 0.0326; S5 E BLI response versus compound conc. (MeV L1708; compound conc. 1 uM): 0.03022; S5 F BLI response versus compound conc. (MeV L1708; compound conc. 1 uM): 0.03823; S5 E BLI response versus compound conc. (MeV L1708; compound conc. 5 uM): 0.0316; S5 F BLI response versus compound conc. (MeV L1708; compound conc. 5 uM): 0.04742; S5 B BLI sensorgram response (MeV L1708; 100 nM, time 0 s): -0.001906; S5 C BLI sensorgram response (MeV L1708; 100 nM, time 0 s): 0.005581; S5 B BLI sensorgram response (MeV L1708; 100 nM, time 0.2 s): -0.001896; S5 C BLI sensorgram response (MeV L1708; 100 nM, time 0.2 s): 0.006504; S5 B BLI sensorgram response (MeV L1708; 100 nM, time 0.4 s): -0.001894; S5 C BLI sensorgram response (MeV L1708; 100 nM, time 0.4 s): 0.007379; S5 B BLI sensorgram response (MeV L1708; 100 nM, time 0.6 s): -0.001966; S5 C BLI sensorgram response (MeV L1708; 100 nM, time 0.6 s): 0.008161; S5 B BLI sensorgram response (MeV L1708; 250 nM, time 0 s): -0.005003; S5 C BLI sensorgram response (MeV L1708; 250 nM, time 0 s): -0.0006808; S5 B BLI sensorgram response (MeV L1708; 250 nM, time 0.2 s): -0.005217; S5 C BLI sensorgram response (MeV L1708; 250 nM, time 0.2 s): -0.0001528; S5 B BLI sensorgram response (MeV L1708; 250 nM, time 0.4 s): -0.005452; S5 C BLI sensorgram response (MeV L1708; 250 nM, time 0.4 s): 0.0001322; S5 B BLI sensorgram response (MeV L1708; 250 nM, time 0.6 s): -0.004917; S5 C BLI sensorgram response (MeV L1708; 250 nM, time 0.6 s): 0.0008364; S5 B BLI sensorgram response (MeV L1708; 1 µM, time 0 s): -0.01251; S5 C BLI sensorgram response (MeV L1708; 1 µM, time 0 s): -0.001989; S5 B BLI sensorgram response (MeV L1708; 1 µM, time 0.2 s): -0.01197; S5 C BLI sensorgram response (MeV L1708; 1 µM, time 0.2 s): -0.00137; S5 B BLI sensorgram response (MeV L1708; 1 µM, time 0.4 s): -0.01055; S5 C BLI sensorgram response (MeV L1708; 1 µM, time 0.4 s): -0.0005476; S5 B BLI sensorgram response (MeV L1708; 1 µM, time 0.6 s): -0.009819; S5 B BLI sensorgram response (MeV L1708; 5 µM, time 0 s): -0.006751; S5 B BLI sensorgram response (MeV L1708; 5 µM, time 0.2 s): -0.006914; S5 C BLI sensorgram response (MeV L1708; 5 µM, time 0.2 s): 0.003468; S5 B BLI sensorgram response (MeV L1708; 5 µM, time 0.4 s): -0.007277; S5 C BLI sensorgram response (MeV L1708; 5 µM, time 0.4 s): 0.003613; S5 B BLI sensorgram response (MeV L1708; 5 µM, time 0.6 s): -0.007135; S5 C BLI sensorgram response (MeV L1708; 5 µM, time 0.6 s): 0.003495; S5 B BLI sensorgram response (MeV L1708; 10 µM, time 0 s): -0.00589; S5 C BLI sensorgram response (MeV L1708; 10 µM, time 0 s): -0.0007761; S5 B BLI sensorgram response (MeV L1708; 10 µM, time 0.2 s): -0.006049; S5 C BLI sensorgram response (MeV L1708; 10 µM, time 0.2 s): -0.00071; S5 B BLI sensorgram response (MeV L1708; 10 µM, time 0.4 s): -0.006539; S5 C BLI sensorgram response (MeV L1708; 10 µM, time 0.4 s): -0.000595; S5 B BLI sensorgram response (MeV L1708; 10 µM, time 0.6 s): -0.006943; S5 C BLI sensorgram response (MeV L1708; 10 µM, time 0.6 s): -0.0003228; S5 B BLI sensorgram response (MeV L1708; 50 µM, time 0 s): -0.01268; S5 C BLI sensorgram response (MeV L1708; 50 µM, time 0 s): 0.001755; S5 B BLI sensorgram response (MeV L1708; 50 µM, time 0.2 s): -0.01168; S5 C BLI sensorgram response (MeV L1708; 50 µM, time 0.2 s): 0.001652; S5 B BLI sensorgram response (MeV L1708; 50 µM, time 0.4 s): -0.01101; S5 C BLI sensorgram response (MeV L1708; 50 µM, time 0.4 s): 0.001542; S5 B BLI sensorgram response (MeV L1708; 50 µM, time 0.6 s): -0.01006; S5 C BLI sensorgram response (MeV L1708; 50 µM, time 0.6 s): 0.001922; steady-state BLI sensor response (MeV L1708; 0.003 uM): 0.007597; steady-state BLI sensor response (MeV L1708; 0.027 uM): 0.01138; steady-state BLI sensor response (MeV L1708; 0.08 uM): 0.01081; steady-state BLI sensor response (MeV L1708; 0.74 uM): 0.01443; steady-state BLI sensor response (MeV L1708; 2.22 uM): 0.01474; steady-state BLI sensor response (MeV L1708; 6.67 uM): 0.01921; IC50 (MeV [1]; Figure 7A source data): 60 nM; IC50 (MeV [1]; −log10(EC50) of literature EC50): 60.1 nM; IC50 (MeV [2]; Figure 7A source data): 59 nM; EC50 (MeV [2]; experimental activity, read-out: EC50): 59 nM; EC50 (MeV [2]; read-out: EC50 in cell-based anti-MeV assays): 70 to 230 nM; CC50 [3]: 75000 nM
